From ChEMBL document CHEMBL5154841, “Optimization of NAMPT activators to achieve in vivo neuroprotective efficacy” (Eur J Med Chem, 2022)
Blank lines part the entries; values can stand above or below the compound they belong to.

What was measured:
[1] = Cytoprotective activity against FK866- induced cell death in human U2OS cells assessed as increase in viable cells by measuring relative AUC at 10 uM incubated for […] by fluorometric analysis relative to NAT; type: functional
[2] = Half life in CD-1 mouse at 1 mg/kg, iv measured after 24 hrs by LC-MS/MS analysis; type: ADME, organism-based; conditions: in vivo
[3] = Half life in CD-1 mouse at 30 mg/kg, ip measured after 24 hrs by LC-MS/MS analysis; type: ADME, organism-based; conditions: in vivo
[4] = Half life in CD-1 mouse at 30 mg/kg, po measured after 24 hrs by LC-MS/MS analysis; type: ADME, organism-based; conditions: in vivo
[5] = Tmax in CD-1 mouse at 30 mg/kg, ip measured after 24 hrs by LC-MS/MS analysis; type: ADME, organism-based; conditions: in vivo
[6] = Tmax in CD-1 mouse at 30 mg/kg, po measured after 24 hrs by LC-MS/MS analysis; type: ADME, organism-based; conditions: in vivo
[7] = Cmax in CD-1 mouse at 30 mg/kg, ip measured after 24 hrs by LC-MS/MS analysis; type: ADME, organism-based; design: time 24 hrs, dose 30 mg/kg, route ip; conditions: in vivo
[8] = Cmax in CD-1 mouse at 30 mg/kg, po measured after 24 hrs by LC-MS/MS analysis; type: ADME, organism-based; design: dose 30 mg/kg, time 24 hrs, route po; conditions: in vivo
[9] = AUClast in CD-1 mouse at 1 mg/kg, iv measured after 24 hrs by LC-MS/MS analysis; type: ADME, organism-based; design: dose 1 mg/kg, time 24 hrs, route iv; conditions: in vivo
[10] = AUClast in CD-1 mouse at 30 mg/kg, ip measured after 24 hrs by LC-MS/MS analysis; type: ADME, organism-based; design: dose 30 mg/kg, time 24 hrs, route ip; conditions: in vivo
[11] = AUClast in CD-1 mouse at 30 mg/kg, po measured after 24 hrs by LC-MS/MS analysis; type: ADME, organism-based; design: dose 30 mg/kg, time 24 hrs, route po; conditions: in vivo
[12] = AUCinfinity in CD-1 mouse at 1 mg/kg, iv measured after 24 hrs by LC-MS/MS analysis; type: ADME, organism-based; design: time 24 hrs, dose 1 mg/kg, route iv; conditions: in vivo
[13] = AUCinfinity in CD-1 mouse at 30 mg/kg, ip measured after 24 hrs by LC-MS/MS analysis; type: ADME, organism-based; design: dose 30 mg/kg, time 24 hrs, route ip; conditions: in vivo
[14] = AUCinfinity in CD-1 mouse at 30 mg/kg, po measured after 24 hrs by LC-MS/MS analysis; type: ADME, organism-based; design: dose 30 mg/kg, time 24 hrs, route po; conditions: in vivo
[15] = Clearance in CD-1 mouse at 1 mg/kg, iv measured after 24 hrs by LC-MS/MS analysis; type: ADME, organism-based; conditions: in vivo
[16] = Volume of distribution at steady state in CD-1 mouse at 1 mg/kg, iv measured after 24 hrs by LC-MS/MS analysis; type: ADME, organism-based; conditions: in vivo, read-out: Vdss
[17] = Bioavailability in CD-1 mouse at 30 mg/kg, ip measured after 24 hrs by LC-MS/MS analysis; type: ADME, organism-based; conditions: in vivo
[18] = Oral bioavailability in CD-1 mouse at 30 mg/kg measured after 24 hrs by LC-MS/MS analysis; type: ADME, organism-based; conditions: in vivo
[19] = tested on: U2OS; test: Cytotoxicity against human U2OS cells assessed as effect on cell viability up to 10 uM measured after 72 hrs by Celltiter-glo luminescent cell viability assay; type: toxicity, cell-based
[20] = tested on: T98G; test: Cytotoxicity against human T98G cells assessed as effect on cell viability up to 10 uM measured after 72 hrs by Celltiter-glo luminescent cell viability assay; type: toxicity, cell-based
[21] = tested on: SH-SY5Y; test: Cytotoxicity against human SH-SY5Y cells assessed as effect on cell viability up to 10 uM measured after 72 hrs by Celltiter-glo luminescent cell viability assay; type: toxicity, cell-based
[22] = tested on: HepG2; test: Cytotoxicity against human HepG2 cells assessed as effect on cell viability up to 10 uM measured after 72 hrs by Celltiter-glo luminescent cell viability assay; type: toxicity, cell-based; conditions: hepg2, 72 h
[23] = Toxicity in C57BL/6J mouse assessed as body weight loss at 1 to 3 mg/kg, iv qd administered for 2 weeks and measured every day; type: organism-based; conditions: in vivo, 336 h, dose 1-3 mg/kg

SMILES: CC(C)(C)c1cc(Cl)c(F)cc1OCC(=O)Nc1ccc(O)cc1
Activity [1]: 40%

SMILES: O=C(COc1ccccc1)Nc1ccc(O)cc1
Activity [1]: 10%

SMILES: CC(C)(C)c1ccc(F)cc1OCC(=O)Nc1ccc(O)cc1
Activity [1]: 171%

SMILES: COC(=O)c1ccc(OCC(=O)Nc2ccc(O)cc2)c(C(C)(C)C)c1
Activity [1]: 133%

SMILES: CC(C)(C)c1cc(Cl)ccc1OCC(=O)Nc1ccc(O)cc1
Activity [1]: 32%

SMILES: COc1ccc(OCC(=O)Nc2ccc(O)cc2)c(C(C)(C)C)c1
Activity [1]: 138%

SMILES: CC(C)(C)c1cc(C#N)ccc1OCC(=O)Nc1ccc(O)cc1
Activity [1]: 126%

SMILES: CC(C)(C)c1cccc(F)c1OCC(=O)Nc1ccc(O)cc1
Activity [1]: 235%

half-life [2]: 17.4 min
half-life [3]: 180 min
half-life [4]: 178 min
Tmax [5]: 19.8 min
Tmax [6]: 15 min
Cmax [7]: 1520 ng/mL
Cmax [8]: 1620 ng/mL
AUC(0-t) at 24 h [9]: 212 ng·h/mL
AUC(0-t) at 24 h [10]: 2510 ng·h/mL
AUC(0-t) at 24 h [11]: 2120 ng·h/mL
AUC(0-inf) [12]: 214 ng·h/mL
AUC(0-inf) [13]: 2520 ng·h/mL
AUC(0-inf) [14]: 2130 ng·h/mL
clearance [15]: 78.8 mL/min/kg
Vd [16]: 1.3 L/kg
bioavailability [17]: 39.2%
bioavailability [18]: 33.2%
SMILES: CC(C)(C)c1ccccc1OCC(=O)Nc1ccc(O)cc1

SMILES: CC(C)(C)c1cc(Br)ccc1OCC(=O)Nc1ccc(O)cc1
Activity [1]: 40%

SMILES: CC(C)(C)c1cc(O)ccc1OCC(=O)Nc1ccc(O)cc1
Activity [1]: 149%

SMILES: CC(C)(C)c1cccc(C#N)c1OCC(=O)Nc1ccc(O)cc1
Activity [19]: Non-Toxic
Activity [20]: Non-Toxic
Activity [21]: Non-Toxic
Activity [22]: Non-Toxic
Activity [23]: Non-Toxic
half-life [2]: 10.8 min
half-life [3]: 63 min
half-life [4]: 80.4 min
Tmax [5]: 15 min
Tmax [6]: 15 min
Cmax [7]: 1560 ng/mL
Cmax [8]: 188 ng/mL
AUC(0-t) at 24 h [9]: 183 ng·h/mL
AUC(0-t) at 24 h [10]: 1330 ng·h/mL
AUC(0-t) at 24 h [11]: 388 ng·h/mL
AUC(0-inf) [12]: 185 ng·h/mL
AUC(0-inf) [13]: 1340 ng·h/mL
AUC(0-inf) [14]: 395 ng·h/mL
clearance [15]: 90.4 mL/min/kg
Vd [16]: 1.13 L/kg
bioavailability [17]: 24.2%
bioavailability [18]: 7.05%

SMILES: CC(C)(C)c1ccc(C#N)cc1OCC(=O)Nc1ccc(O)cc1
Activity [1]: 206%
